Consider 2 molecules from PMC3646888 (PLoS ONE, 2013).

Holding throughout (format): in vitro ADME
One data set concerns the target T1, CYP1A2r (Rattus norvegicus, UniProt P04799).
T1 sequence (P04799 1-513): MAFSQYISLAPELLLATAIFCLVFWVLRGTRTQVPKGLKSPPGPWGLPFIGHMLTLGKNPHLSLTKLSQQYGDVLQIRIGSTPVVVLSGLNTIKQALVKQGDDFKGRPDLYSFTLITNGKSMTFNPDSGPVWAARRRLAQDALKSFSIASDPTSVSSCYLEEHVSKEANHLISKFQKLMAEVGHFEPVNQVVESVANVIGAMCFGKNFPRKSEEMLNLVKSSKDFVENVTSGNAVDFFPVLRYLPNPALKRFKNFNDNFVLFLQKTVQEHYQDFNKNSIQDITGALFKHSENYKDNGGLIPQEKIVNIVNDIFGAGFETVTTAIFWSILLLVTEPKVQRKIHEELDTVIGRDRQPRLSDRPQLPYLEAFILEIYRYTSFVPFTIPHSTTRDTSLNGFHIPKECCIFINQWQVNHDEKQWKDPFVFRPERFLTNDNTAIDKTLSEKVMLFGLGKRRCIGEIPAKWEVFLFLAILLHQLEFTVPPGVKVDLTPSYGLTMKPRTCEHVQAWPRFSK
Put plainly: Fluorescence-based CYP assay, recombinant CYP1A2r, substrate EFC. As to the method:
These assays were performed by methods similar to those described by VanAlstine and Hough, Stresser et al., Wulff et al., Henderson et al., and Crespi et al., with minor modifications. All incubations were performed in a final volume of 200 µL of 50 mM potassium phosphate buffer at pH 7.4 containing 1% acetonitrile. CYP inhibitor studies were performed according to the parameters of Table 1. Substrate concentrations were chosen to be near known Km values. As described in the references cited, two different NADPH regenerating systems were used depending on the substrates used (Table 1). […] Samples were pre-incubated at 37°C for the designated times, and the reactions were initiated with the addition of a substrate and enzyme mixtures (Table 1). […] For the assays utilizing the “high” regenerating system, enzyme reactions were terminated at the designated time by the addition of 75 µL of 2N NaOH, followed by a 2 h post-incubation at 37°C. Product formation was then measured at the designated wavelengths (Table 1). For the “low” regenerating system assays, blanks and standards were prepared in 0.1 mL buffer without the regenerating system. For the “high” regenerating system assays, blanks and standards containing 0.1 mL of buffer received 75 µL of 2N NaOH following pre-incubation.

For the next data set, the target named is T2, CYP2C11 (Rattus norvegicus, UniProt P08683).
T2 sequence (P08683 1-500): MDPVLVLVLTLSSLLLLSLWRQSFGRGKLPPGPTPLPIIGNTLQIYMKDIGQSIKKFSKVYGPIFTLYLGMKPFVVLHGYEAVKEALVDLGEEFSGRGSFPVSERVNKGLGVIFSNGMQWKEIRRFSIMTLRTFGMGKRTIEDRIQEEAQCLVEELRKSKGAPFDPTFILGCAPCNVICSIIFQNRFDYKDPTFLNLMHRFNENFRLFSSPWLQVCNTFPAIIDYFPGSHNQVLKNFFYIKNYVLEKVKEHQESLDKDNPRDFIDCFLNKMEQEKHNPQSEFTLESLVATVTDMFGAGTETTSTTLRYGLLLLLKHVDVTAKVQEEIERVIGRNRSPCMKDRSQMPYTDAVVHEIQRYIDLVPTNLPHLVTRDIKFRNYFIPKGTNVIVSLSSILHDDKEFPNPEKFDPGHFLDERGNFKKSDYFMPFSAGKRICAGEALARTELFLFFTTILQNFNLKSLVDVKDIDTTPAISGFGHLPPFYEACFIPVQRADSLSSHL
The data set can be described thus: Fluorescence-based CYP assay, recombinant CYP2C11, substrate DBF. As for the experimental part:
(§1) These assays were performed by methods similar to those described by VanAlstine and Hough, Stresser et al., Wulff et al., Henderson et al., and Crespi et al., with minor modifications. All incubations were performed in a final volume of 200 µL of 50 mM potassium phosphate buffer at pH 7.4 containing 1% acetonitrile. CYP inhibitor studies were performed according to the parameters of Table 1. Substrate concentrations were chosen to be near known Km values. As described in the references cited, two different NADPH regenerating systems were used depending on the substrates used (Table 1). Inhibitors were added to either “low” NADPH-regenerating system (final concentration of 8.1 µM NADP^+, 0.4 mM glucose-6-phosphate, 0.4 mM magnesium chloride, 0.2 U/mL glucose-6-phosphate dehydrogenase) or to “high” NADPH-regenerating system (final concentration of 1.3 mM NADP^+, 3.3 mM glucose-6-phosphate, 3.3 mM magnesium chloride, 0.4 U/mL glucose-6-phosphate dehydrogenase) in a total of 0.1 mL buffer. […] For assays utilizing “low” regenerating systems, product formation was monitored continuously by a Victor3 1420 Multilabel Plate Counter at the designated wavelengths (Table 1). […] Product formation was then measured at the designated wavelengths (Table 1). […]

Another data set has as its target CYP2C19 (Homo sapiens, UniProt P33261). Put plainly: Fluorescence-based CYP assay, recombinant CYP2C19, substrate DBF. As to the method:
as §1

The target of another data set is T3, CYP2B1 (Rattus norvegicus, UniProt P00176).
T3 sequence (P00176 1-491): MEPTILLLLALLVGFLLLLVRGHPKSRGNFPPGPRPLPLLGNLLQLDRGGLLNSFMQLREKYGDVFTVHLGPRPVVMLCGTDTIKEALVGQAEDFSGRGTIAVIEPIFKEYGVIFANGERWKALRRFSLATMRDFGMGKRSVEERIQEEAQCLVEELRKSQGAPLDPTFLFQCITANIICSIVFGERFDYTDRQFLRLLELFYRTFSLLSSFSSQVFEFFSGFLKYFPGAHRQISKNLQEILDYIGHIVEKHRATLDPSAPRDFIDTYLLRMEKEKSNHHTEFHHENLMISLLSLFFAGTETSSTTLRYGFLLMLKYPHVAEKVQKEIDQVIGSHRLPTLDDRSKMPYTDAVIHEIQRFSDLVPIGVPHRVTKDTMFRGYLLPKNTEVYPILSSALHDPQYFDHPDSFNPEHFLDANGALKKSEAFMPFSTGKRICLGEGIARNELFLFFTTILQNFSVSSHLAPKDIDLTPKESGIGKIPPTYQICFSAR
The data set can be described thus: Fluorescence-based CYP assay, recombinant CYP2B1, substrate EFC. As for the experimental part: as §1

“Also recorded” adds a separate entry of the source.

CYP2C19, sequence (P33261 whole entry): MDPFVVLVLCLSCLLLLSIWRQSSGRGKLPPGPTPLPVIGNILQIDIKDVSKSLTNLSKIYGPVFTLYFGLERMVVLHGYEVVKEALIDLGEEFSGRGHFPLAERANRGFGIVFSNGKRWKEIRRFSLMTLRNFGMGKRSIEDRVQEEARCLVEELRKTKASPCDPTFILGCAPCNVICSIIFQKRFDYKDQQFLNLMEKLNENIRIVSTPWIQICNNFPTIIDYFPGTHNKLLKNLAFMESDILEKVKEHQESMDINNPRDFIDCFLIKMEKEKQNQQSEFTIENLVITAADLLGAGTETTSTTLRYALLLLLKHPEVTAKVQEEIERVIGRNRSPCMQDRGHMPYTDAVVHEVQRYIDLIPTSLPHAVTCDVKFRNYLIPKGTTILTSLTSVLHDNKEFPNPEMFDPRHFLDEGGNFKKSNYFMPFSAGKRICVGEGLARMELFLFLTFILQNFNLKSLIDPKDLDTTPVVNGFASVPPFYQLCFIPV

Regarding `Clc1ccccc1C(c1ccccc1)(c1ccccc1)n1ccnc1` [Clotrimazole], the “Inhibition of CYP1A2r (in words)” value on CYP1A2r (clotrimazole concentration-response, Fig. 1C) is on record as “only partly inhibited”. Moreover, the “Inhibition of CYP2C11 (in words)” value on CYP2C11 (positive control) was “potent inhibitor”. Also, the “Inhibition of CYP2C19 (in words)” value on CYP2C19 (recombinant enzyme) was “potent inhibitor”. For the same molecule, the “Inhibition of CYP2B1 (in words)” value on CYP2B1 (positive control) is reported as “potent inhibitor”.
`Clc1ccccc1C(c1ccccc1)(c1ccccc1)n1cccn1` [TRAM-34, 1-[(2-chlorophenyl)diphenylmethyl]-1H-pyrazole]: the IC50 on CYP1A2r was more than 80 µM; at CYP2C11 it was 12.6 µM; at CYP2C19 it was 1.8 µM; at CYP2B1, 3 µM. In addition, the “Inhibition of CYP1A2r (in words)” value on CYP1A2r (concentrations up to 80 µM) is on record as “no inhibition; also recorded: no inhibitory effects”.

As usually defined, the IC50 is the midpoint of a concentration-inhibition curve.
